The values below come from patent US12180198B2, “Ribocil C antibiotics effective for Gram-negative pathogens” (THE BOARD OF TRUSTEES OF THE UNIVERSITY OF ILLINOIS, priority 2018, dated 2024).

One series concerns H. sapiens IMR-90. Nature of the series: Cell viability, Alamar Blue. The format is cell-based. How it is done:
Cell culture. IMR90 cells were obtained from ATCC. IMR90 cells were grown in EMEM with 10% fetal bovine serum (Gemini Benchmark, Cat #100-106), 100 U/mL penicillin, and 100 μg/mL streptomycin. All cells were cultured at 37° C. in a 5% CO2 environment. Media was prepared by the University of Illinois School of Chemical Sciences Cell Media Facility. Sex and age of cell lines: IMR90 ([…]).
Cell viability. Cells seeded (IMR90: 5,000 cells/well) a 96-well plate (Greiner Bio-One, Cat #655180) and were allowed to attach overnight. Cells were treated with investigational compounds in DMSO (30 μM, 1% DMSO final, 100 μL/well). Raptinal (100 μM) was used as a dead control. After 24 h post-treatment, media was exchanged with compound-free media. After 72 h post-treatment, cell viability was assessed using the Alamar Blue method. Stock Alamar Blue solution [10 μL, 440 μM resazurin (Sigma-Aldrich, Cat #R7017) in sterile 1×PBS] was added to each well, and plate was incubated […]. Conversion of Alamar Blue was measured with plate reader (SpectraMax M3, Molecular Devices) by fluorescence (ex 555 nm, em 585 nm, cutoff 570 nm, autogain). Percent death was determined by normalizing to DMSO-treated cells and raptinal-treated cells.

In the next series the target is E. coli FabI (Escherichia coli, UniProt P0AEK4). Nature of the series: In vitro FabI inhibition assay. The format is biochemical. The note with it: 20 nM enzyme. How it is done: Expression and purification of E. coli FabI. E. coli BL21 (DE3) pLysS (Novagen) were transformed with pET15-ecFabI. Overnight culture (10 mL) in LB supplemented with 50 μg/mL ampicillin from single colony was diluted into 1 L LB+50 μg/mL ampicillin. Cells were grown at 37° C., 250 rpm until OD600 reached 0.8. Culture was cooled to 18° C. and induced with 0.5 mM IPTG for 18 h at 18° C. Cells were harvested by centrifugation (5,000×g, 10 min, 4° C.). Cell pellets were flash frozen and store at −20° C. pending purification. Frozen cell pellets were thawed on ice and resuspended (5 mL per gram wet pellet, typically 20-30 mL) with 0.5% CHAPS, 1 mM PMSF, 1 μg/mL leupeptin, 1 μg/mL pepstatin A, and 2 μg/mL aprotinin in binding buffer [20 mM Tris (pH 7.9), 500 mM NaCl, 5 mM imidazole]. Cells were lysed by sonication on ice (30%, 10 s pulse, 20 s rest, 5 min total). Lysate was clarified by centrifugation (35,000×g, 1 h, 4° C.) and filtration through 0.2 μm syringe filter. Lysate was incubated with 5 mL Co-NTA agarose (HisPur cobalt resin, Thermo-Fisher Scientific Cat #89965, pre-equilibrated with binding buffer) for 30 min at 4° C. with gentle rocking. Agarose-containing lysate was transferred to column and flow through discarded. Column was washed with 2 column volumes of binding buffer followed by 10 column volumes of wash buffer [20 mM Tris (pH 7.9), 500 mM NaCl, 60 mM imidazole]. Protein was eluted with 15 mL elution buffer [20 mM Tris (pH 7.9), 500 mM NaCl, 300 mM imidazole]. […] Protein concentration was determined by BCA assay (ThermoFisher Cat #23227).
E. coli FabI, sequence (P0AEK4 whole entry): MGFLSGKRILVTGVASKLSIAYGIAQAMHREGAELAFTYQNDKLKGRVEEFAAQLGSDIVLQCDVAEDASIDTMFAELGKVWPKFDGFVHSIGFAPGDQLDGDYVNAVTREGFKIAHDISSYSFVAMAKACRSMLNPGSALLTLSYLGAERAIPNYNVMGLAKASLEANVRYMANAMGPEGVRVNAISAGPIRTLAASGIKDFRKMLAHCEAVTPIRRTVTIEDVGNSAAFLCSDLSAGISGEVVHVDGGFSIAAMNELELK
In vitro FabI inhibition assay. […] Plate was placed in plate-reader (SpectraMax 190, Molecular Devices) under temperature control (25° C.), and temperature was allowed to equilibrate. […] After shaking for 5 s, reaction progress was monitored by absorbance at 340 nm every 15 s for 90 min. Linear portion of reaction progress curve was fit using plate-reader software (SoftMax Pro 7.0). Percent activity was calculated relative to DMSO-only and no-enzyme controls in each plate. […]

The subject of series [1] is E. coli strains with intact outer membranes. Nature of the series: MIC, micro-dilution broth method (text summary). The class given is cell-based. The note with it: Escherichia coli. How it is done:
FIG. 2. Antimicrobial activity of Debio-1452 and derivatives. MIC values were determined using the micro-dilution broth method as outlined by the Clinical and Laboratory Standards Institute (clsi.org/). All experiments were performed in biological triplicate.
Antimicrobial susceptibility tests. Susceptibility testing was performed in biological triplicate, using the micro-dilution broth method as outlined by the Clinical and Laboratory Standards Institute. Bacteria were cultured with cation-adjusted Muller-Hinton broth (Sigma-Aldrich, Cat #90922) in round-bottom 96-well plates (Corning, Cat #3788). Human serum (pooled gender, 0.2 μm filtered) was purchased from BioIVT (Hicksville, NY).

The next series concerns K. pneumoniae BAA-2146. Nature of the series: Bioactivity against exemplary strains of bacteria (Table 5A). As to conditions: Strain 4: K. pneumoniae BAA-2146. The format is cell-based.
The test system of a further series is A. baumannii BAA-2093. Described as above. The note with it: Strain 3: A. baumannii BAA-2093. The class given is cell-based.

Structures can show the parent of a compound that is named as a salt. Where two headings read alike, the source gives them in different places. Some results are limits rather than exact numbers.

Broadly, the inhibition is the relative decrease from the control value, in per cent. What is called MIC is the lowest concentration found to suppress growth. In the case of `Cc1c(CN(C)C(=O)/C=C/c2cnc3c(c2)CC(N)C(=O)N3)oc2ccccc12` (centres unmarked) [Debio-1452-NH3, (E)-3-(6-amino-7-oxo-5,6,7,8-tetrahydro-1,8-naphthyridin-3-yl)-N-methyl-N-((3-methylbenzofuran-2-yl)methyl)acrylamide hydrochloride], the “toxicity to mammalian cells grown in culture (in words)” value with H. sapiens IMR-90 (24 hour exposures) was “little toxicity”. Further, the inhibition at 30 µM in the series on H. sapiens IMR-90 (Homo sapiens, IMR-90, read-out: % inhibition at 30 μM) came out at 30%. For the same molecule, at E. coli FabI, the “inhibition of E. coli FabI in vitro (in words)” value is “potent FabI inhibitors”. This molecule also gave an MIC in series [1] of 4 µg/mL. For the same molecule, the Bioactivity with K. pneumoniae BAA-2146 is 32; in the series on A. baumannii BAA-2093 it was 4.
Take `Cc1c(CN(C)C(=O)/C=C/c2cnc3c(c2)CCC(=O)N3)oc2ccccc12` [Debio-1452, (E)-N-methyl-N-((3-methylbenzofuran-2-yl)methyl)-3-(7-oxo-5,6,7,8-tetrahydro-1,8-naphthyridin-3-yl)acrylamide, reference compound]: in the series with H. sapiens IMR-90 (H. sapiens IMR-90, 30 μM, 24 h exposure, viability at 72 h, read-out: % inhibition at 30 μM), the inhibition at 30 µM was determined as 16%. The “inhibition of E. coli FabI in vitro (in words)” value at E. coli FabI is “potent FabI inhibitors”. In addition, in series [1] (E. coli strains with intact outer membranes, read-out: MIC), the MIC was more than 32 µg/mL. Also, the Bioactivity is more than 32 in the series on K. pneumoniae BAA-2146 and 16 in the series on A. baumannii BAA-2093.
